What is called Ki is the equilibrium dissociation constant of an inhibitor or competing ligand from its target.

The target of this experiment is T1, recombinant human EP-2 receptor (Homo sapiens, UniProt P43116).
T1 construct: stably transfected with full length cDNA encoding human Prostaglandin E2; expressed in transfected cells
T1 sequence (P43116 whole entry): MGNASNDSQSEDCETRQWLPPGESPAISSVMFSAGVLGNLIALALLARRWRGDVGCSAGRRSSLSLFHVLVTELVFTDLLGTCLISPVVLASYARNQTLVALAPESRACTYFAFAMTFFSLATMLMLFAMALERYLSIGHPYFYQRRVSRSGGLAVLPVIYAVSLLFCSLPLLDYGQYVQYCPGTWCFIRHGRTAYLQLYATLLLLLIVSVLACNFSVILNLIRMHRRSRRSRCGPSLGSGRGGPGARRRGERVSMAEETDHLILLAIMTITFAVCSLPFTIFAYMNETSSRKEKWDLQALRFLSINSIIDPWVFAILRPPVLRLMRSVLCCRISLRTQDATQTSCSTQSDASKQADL
The experiment can be described thus: In vitro antagonist potency against recombinant human prostaglandin E2 (EP-2) receptor in CHO cells (cAMP). Format: cell-based. The following applies: CHO cells expressing recombinant human EP-2 receptor, stimulated with PGE2 5 nM; cAMP readout; Ki from IC50 by Cheng-Prusoff; read-out: EP2 Ki. How it is done: 1.0 Measurement of In Vitro Antagonist Potency (IC50) of Compounds Against Recombinant Human Prostaglandin E2 Receptor in CHO Cells.
The prostaglandin E2 (EP-2) receptor is Gs coupled and agonism of the receptor by PGE2 results in activation of intracellular adenylate cyclase enzymes that synthesise the second messenger signalling molecule, adenosine 3′,5′-cyclic monophosphate (cAMP). CHO cells expressing the recombinant human EP-2 receptor are stimulated with PGE2 (5 nM) equivalent to approximately […] values to give the maximal cAMP signal. Decreases in cAMP levels following treatment of stimulated recombinant EP-2 cells with potential antagonist compounds were measured and potency (IC50) calculated as follows.
A Chinese hamster ovary (CHO) cell line stably transfected with full length cDNA encoding human Prostaglandin E2 was established using standard molecular biology methods. Test compounds were dissolved in dimethyl sulphoxide (DMSO) at 4 mM. 11 point half log unit increment dilution series of test compound were prepared in DMSO then diluted 1 in 40 in a buffer comprised of phosphate buffered saline (PBS) and 0.05% pluronic F-127 surfactant. Freshly cultured cells at 80-90% confluence were harvested and re-suspended in 90% growth media/10% DMSO. The cells were frozen using a planar freezer and stored in frozen aliquots in cryovials in liquid nitrogen until the day of the experiment. A vial of cells was defrosted in a 37° C. water bath for 2 min, then transferred to 10 ml of Dulbecco's Modified Eagle's Medium (DMEM). The cells were then centrifuged for 5 min at 1000 g and the pellet re-suspended at 1,000,000 cells/ml in DMEM. 5,000 cells (5 ul) were added to 5 ul of the compound dilution series in a 384 well assay plate and pre-incubated for 30 min at 37° C. 5 ul of agonist (15 nM PGE2 in PBS to give 5 nM FAC) was added and plates further incubated for 90 min at 37° C. The relative cAMP concentration in each well was then measured using a β-galactosidase enzyme fragment complementation method purchased in kit form as the Discoverx cAMP II kit from GE Healthcare, UK. […] Sigmoidal curves were fitted to plots of log10 inhibitor concentration vs. percent effect. IC50 estimates were determined as the concentration of test compound giving an effect half way between the bottom and top asymptotes of the sigmoidal dose response curve. Each experiment included an IC50 determination for the literature compound as a standard to track assay consistency and allow fair comparison between values obtained in different experiments. The EC50 of PGE2 is used in combination with the ligand concentration in the assay to determine Ki values for antagonist dose responses using the Cheng-Prusoff equation. Consequently an agonist dose response curve is carried out for each experiment using the same incubation as the antagonist plate.
Turning to `O=C(c1ccc(Cl)cc1)N1CC(Cn2nnc(-c3ccc(Cl)c(Cl)c3)n2)(C(=O)O)C1` [Example 9], the Ki amounted to 0.864 nM. For `CCc1ccccc1NC(=O)N1CC(Cn2nnc(-c3cccc(F)c3)n2)(C(=O)O)C1` [Example 69], the Ki turned out to be 440 nM. For `O=C(Nc1cccc(Cl)c1Cl)N1CC(Cn2nnc(-c3ccccc3)n2)(C(=O)O)C1` [Example 67, 1-{[(2,3-dichlorophenyl)amino]carbonyl}-3-[(5-phenyl-2H-tetrazol-2-yl)methyl]azetidine-3-carboxylic acid], the Ki was determined as 130 nM. For `O=C(c1ccc(Cl)cc1)N1CC(Cn2nnc(Cc3ccc(C(F)(F)F)cc3)n2)(C(=O)O)C1` [Example 60], the inhibitory constant (Ki) is 645 nM.

Consider `O=C(c1ccc(F)cc1)N1CC(Cn2nnc(-c3ccc(F)cc3)n2)(C(=O)O)C1` [Example 26], for which the inhibition constant (Ki) stood at 74.8 nM. In the case of `Cc1cccc(-c2nnn(CC3(C(=O)O)CN(C(=O)c4ccc(F)cc4)C3)n2)c1` [Example 17], the Ki stood at 14.8 nM. With `O=C(c1ccc(F)cc1)N1CC(Cn2nnc(-c3ccc(Cl)cc3)n2)(C(=O)O)C1` [Example 25], the Ki came out at 20 nM.

In the case of `O=C(c1ccc(F)cc1)N1CC(Cn2nnc(-c3ccc(F)c(F)c3)n2)(C(=O)O)C1` [Example 41], the inhibition constant (Ki) was found to be 66.8 nM. `O=C(c1ccc(F)cc1)N1CC(Cn2nnc(-c3ccccc3F)n2)(C(=O)O)C1` [Example 13]: the inhibition constant (Ki) turned out to be 87.3 nM. On to `O=C(c1ccc(F)cc1)N1CC(Cn2nnc(-c3c(F)cccc3F)n2)(C(=O)O)C1` [Example 42], for which the Ki is 262 nM. Consider `Cc1ccc(-c2nnn(CC3(C(=O)O)CN(C(=O)c4ccc(Cl)cc4)C3)n2)cc1` [Example 4], for which the Ki stood at 1.45 nM.

Consider `O=C(c1ccc(Cl)cc1)N1CC(Cn2nnc(-c3cccc(Cl)c3)n2)(C(=O)O)C1` [Example 2], for which the Ki stood at 3.51 nM. Under `COc1ccc(C(=O)N2CC(Cn3nnc(-c4ccc(OC)c(OC)c4)n3)(C(=O)O)C2)cc1` [Example 62] stands 25.2 nM; under `COc1ccc(-c2nnn(CC3(C(=O)O)CN(C(=O)c4ccc(F)cc4)C3)n2)cc1` [Example 28], 10.8 nM; under `COc1cccc(NC(=O)N2CC(Cn3nnc(-c4cccc(F)c4)n3)(C(=O)O)C2)c1` [Example 68, 3-{[5-(3-fluorophenyl)-2H-tetrazol-2-yl]methyl}-1-{[(3-methoxyphenyl)amino]carbonyl}azetidine-3-carboxylic acid], 303 nM. Regarding `O=C(c1ccc(Cl)cc1)N1CC(Cn2nnc(-c3ccc(C(F)(F)F)cc3)n2)(C(=O)O)C1` [Example 5], the Ki is 1.64 nM.

With `COc1ccc(-c2nnn(CC3(C(=O)O)CN(C(=O)c4cccc(F)c4)C3)n2)cc1OC` [Example 55], the Ki stood at 453 nM.

With `O=C(c1ccc(F)cc1)N1CC(Cn2nnc(-c3ccc(Cl)cc3Cl)n2)(C(=O)O)C1` [Example 38], the Ki was 27 nM. On to `COc1ccccc1-c1nnn(CC2(C(=O)O)CN(C(=O)c3ccc(F)cc3)C2)n1` [Example 16], for which the Ki turned out to be 442 nM.

In the case of `O=C(c1ccc(F)cc1)N1CC(Cn2nnc(-c3ccccc3C(F)(F)F)n2)(C(=O)O)C1` [Example 15], the Ki turned out to be 733 nM. As for `O=C(c1ccc(F)cc1)N1CC(Cn2nnc(-c3ccccc3Cl)n2)(C(=O)O)C1` [Example 14], the Ki came to 220 nM. For `Cc1ccc(-c2nnn(CC3(C(=O)O)CN(C(=O)c4ccc(Cl)cc4)C3)n2)cc1Cl` [Example 8], the Ki was 0.423 nM. Take `CCOc1ccccc1C(=O)N1CC(Cn2nnc(-c3ccccc3)n2)(C(=O)O)C1` [Example 51]: the Ki stood at 538 nM. With `O=C(c1ccc(Cl)cc1)N1CC(Cn2nnc(-c3c(F)cccc3F)n2)(C(=O)O)C1` [Example 61], the inhibition constant Ki turned out to be 7.47 nM. For `O=C(c1ccccc1)N1CC(Cn2nnc(-c3ccccc3)n2)(C(=O)O)C1` [Example 1, 1-Benzoyl-3-[(5-phenyl-2H-tetrazol-2-yl)methyl]azetidine-3-carboxylic acid], the Ki stood at 225 nM. Regarding `COc1cccc(C(=O)N2CC(Cn3nnc(-c4ccc(C(C)(C)C)cc4)n3)(C(=O)O)C2)c1` [Example 56], the Ki came out at 176 nM.
